Assay [1] deals with T1, FGFR3 (Homo sapiens, UniProt P22607).
T1 construct: made in house; host or cells: E. coli derived from BL21, infected with T7 phage
The experiment in a line: Kinase binding assay (kinase-tagged T7 phage, qPCR), Kd. The conditions noted are these: read-out: FGFR3 (Kd nM). (In general: Quantitative PCR measures a nucleic acid by following its amplification.)

Assay [2] addresses T2, FGFR4 (Homo sapiens, UniProt P22455).
T2 construct: made in house; host or cells: E. coli derived from BL21, infected with T7 phage
The description is as above. The settings on record: read-out: FGFR4 (Kd nM).

Assay [3] addresses T3, FGFR1 (Homo sapiens, UniProt P11362).
T3 construct: made in house; host or cells: E. coli derived from BL21, infected with T7 phage
The description is as above. The settings on record: read-out: FGFR1 (Kd nM).

For assay [4], the target named is T4, FGFR2 (Homo sapiens, UniProt P21802).
T4 construct: made in house; host or cells: E. coli derived from BL21, infected with T7 phage
The description is as above. The settings on record: read-out: FGFR2 (Kd nM).

Assay [5] concerns the target T5, BCR-FGFR4 Ba/F3 (Homo sapiens, UniProt P22455).
T5 construct: host or cells: Ba/F3; the other entry of the earlier key: BCR (P11274, Breakpoint cluster region protein)
The experiment in a line: Ba/F3 cell viability assay (CellTiter-Glo 2.0). Format: cell-based. The settings on record: Ba/F3 BCR-FGFR4 cells, 48 hours. The text has this:
(§1) Experimental Purpose: Recombinant kinase fusions are transduced into parental Ba/F3, which becomes dependent upon this constitutive kinase activity for IL3-independent survival. Inhibition of kinase activity leads to cell death, which is monitored using CellTiter-Glo® 2.0 (Promega) which measures intracellular ATP concentration that in turn serves as a marker for viability. BCR-FGFR4 Ba/F3, BCR-FGFR1 Ba/F3 and FGFR3-BAIAP2L1 Ba/F3 were obtained from Advanced Cellular Dynamics (Seattle, WA)
(§2) Cell Viability Assay Procedure: Cell Titer-Glo® 2.0 Luminescent cell viability assay reagent was purchased from Promega (Madison, WI). BCR-FGFR4 Ba/F3, BCR-FGFR1 Ba/F3 and FGFR3-BAIAP2L1 Ba/F3 cells were cultured in RPMI1640 media supplemented with 10% fetal bovine serum. Cultures were maintained at 37° C. in a humidified atmosphere of 5% CO2 and 95% air.
(§3) Cells were plated in 96-well clear bottom/white plates (Corning #3903) at 10,000 cells/well in 100 μl of media, incubated overnight. The next day, test compound DMSO stock solutions were made at 10 mM and 2 μM final concentration. Compounds were then added to cells in a 9-dose, 10-fold dilution series starting at 30 μM with an HP 300e Digital Dispenser (each dose was applied in triplicate). DMSO was backfilled to each well up to 301 nL total volume of test compound+DMSO, and a total of 301 nL DMSO was added to a control/no test compound well in triplicate. The cells in cell culture plates were incubated with the compounds at 37° C. and 5% CO2 for 48 hours. Then 50 μl of Cell Titer Glo 2.0 reagent was added to each well of the cell culture plates. The contents were covered from light and mixed on an orbital shaker at room temperature for 10 min. Luminescence was recorded by a Synergy H1 Microplate Reader (Biotek, Winooski, VT). Cells were assessed as a percentage of DMSO only treated control cells. Curves were plotted and IC50 values were calculated using the GraphPad Prism 8 program based on a sigmoidal dose-response equation (4 parameter).

Assay [6] deals with T6, BCR-FGFR1 Ba/F3 (Homo sapiens, UniProt P11362).
T6 construct: host or cells: Ba/F3; the other entry of the earlier key: BCR (P11274, Breakpoint cluster region protein)
The experiment in a line: Ba/F3 cell viability assay (CellTiter-Glo 2.0). The settings on record: Ba/F3 BCR-FGFR1 cells, 48 hours. Format: cell-based.
Text: as §1, §2, §3

For assay [7], the target named is T7, FGFR3-BAIAP2L1 Ba/F3 (Homo sapiens, UniProt P22607).
T7 construct: host or cells: Ba/F3; the other entry of the earlier key: BAIAP2L1 (Q9UHR4, BAR/IMD domain-containing adapter protein 2-like 1)
In words: Ba/F3 cell viability assay (CellTiter-Glo 2.0). Format: cell-based. The settings on record: Ba/F3 FGFR3-BAIAP2L1 cells, 48 hours.
Text: as §1, §2, §3
For orientation: In ATP-based viability assays light output follows the ATP content of the culture.

SMILES strings stand for the structures.

T2 sequence (P22455 22-802): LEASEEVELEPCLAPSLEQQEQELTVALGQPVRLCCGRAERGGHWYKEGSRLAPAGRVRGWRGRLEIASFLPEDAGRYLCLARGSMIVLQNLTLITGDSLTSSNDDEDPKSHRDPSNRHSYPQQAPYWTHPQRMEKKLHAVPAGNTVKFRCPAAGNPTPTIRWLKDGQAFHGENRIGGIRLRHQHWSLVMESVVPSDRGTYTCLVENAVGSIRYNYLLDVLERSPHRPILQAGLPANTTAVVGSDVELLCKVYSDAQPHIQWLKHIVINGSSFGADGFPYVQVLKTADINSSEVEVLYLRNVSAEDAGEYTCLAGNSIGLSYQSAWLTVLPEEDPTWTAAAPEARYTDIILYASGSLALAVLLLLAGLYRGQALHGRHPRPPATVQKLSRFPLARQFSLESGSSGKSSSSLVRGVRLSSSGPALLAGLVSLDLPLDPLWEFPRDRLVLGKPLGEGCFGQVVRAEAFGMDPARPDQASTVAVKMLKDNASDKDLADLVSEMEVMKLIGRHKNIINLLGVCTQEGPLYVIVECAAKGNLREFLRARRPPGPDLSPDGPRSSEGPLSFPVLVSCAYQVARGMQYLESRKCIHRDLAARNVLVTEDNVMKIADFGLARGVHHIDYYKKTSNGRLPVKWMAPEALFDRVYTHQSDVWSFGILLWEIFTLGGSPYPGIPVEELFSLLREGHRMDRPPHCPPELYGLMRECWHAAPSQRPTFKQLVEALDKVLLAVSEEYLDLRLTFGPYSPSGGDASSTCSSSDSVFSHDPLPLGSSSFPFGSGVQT
T4 sequence (P21802 22-821): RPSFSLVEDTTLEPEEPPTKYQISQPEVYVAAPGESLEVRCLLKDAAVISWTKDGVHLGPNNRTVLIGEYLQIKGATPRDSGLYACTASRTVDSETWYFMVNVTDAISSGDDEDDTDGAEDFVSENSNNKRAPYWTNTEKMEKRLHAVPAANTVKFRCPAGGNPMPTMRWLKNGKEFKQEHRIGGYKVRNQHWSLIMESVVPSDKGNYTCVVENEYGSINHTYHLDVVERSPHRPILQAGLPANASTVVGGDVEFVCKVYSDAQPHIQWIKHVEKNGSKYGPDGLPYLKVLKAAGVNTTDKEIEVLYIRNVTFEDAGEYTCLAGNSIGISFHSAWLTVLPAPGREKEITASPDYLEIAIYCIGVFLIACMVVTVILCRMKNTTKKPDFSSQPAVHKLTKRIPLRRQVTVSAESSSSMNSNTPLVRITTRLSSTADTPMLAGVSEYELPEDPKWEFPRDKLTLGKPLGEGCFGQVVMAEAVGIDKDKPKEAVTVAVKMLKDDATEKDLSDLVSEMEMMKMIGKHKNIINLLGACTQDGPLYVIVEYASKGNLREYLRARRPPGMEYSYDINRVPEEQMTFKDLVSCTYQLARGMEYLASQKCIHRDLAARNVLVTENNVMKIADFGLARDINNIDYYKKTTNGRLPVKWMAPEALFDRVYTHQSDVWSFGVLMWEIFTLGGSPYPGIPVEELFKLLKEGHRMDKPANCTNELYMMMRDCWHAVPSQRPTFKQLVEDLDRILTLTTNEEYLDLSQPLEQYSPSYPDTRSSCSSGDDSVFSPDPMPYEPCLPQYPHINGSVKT
T7 sequence (P22607 397-758 limits assumed): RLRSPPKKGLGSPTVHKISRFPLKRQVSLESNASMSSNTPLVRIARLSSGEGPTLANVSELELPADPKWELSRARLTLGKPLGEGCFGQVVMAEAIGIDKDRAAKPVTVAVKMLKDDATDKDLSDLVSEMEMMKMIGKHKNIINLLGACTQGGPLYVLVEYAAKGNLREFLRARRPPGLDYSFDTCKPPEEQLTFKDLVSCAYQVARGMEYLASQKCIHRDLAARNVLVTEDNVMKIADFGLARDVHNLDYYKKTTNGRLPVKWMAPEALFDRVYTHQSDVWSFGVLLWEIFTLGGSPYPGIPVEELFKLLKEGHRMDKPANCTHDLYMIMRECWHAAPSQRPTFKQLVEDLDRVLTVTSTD
T3 sequence (P11362 22-822): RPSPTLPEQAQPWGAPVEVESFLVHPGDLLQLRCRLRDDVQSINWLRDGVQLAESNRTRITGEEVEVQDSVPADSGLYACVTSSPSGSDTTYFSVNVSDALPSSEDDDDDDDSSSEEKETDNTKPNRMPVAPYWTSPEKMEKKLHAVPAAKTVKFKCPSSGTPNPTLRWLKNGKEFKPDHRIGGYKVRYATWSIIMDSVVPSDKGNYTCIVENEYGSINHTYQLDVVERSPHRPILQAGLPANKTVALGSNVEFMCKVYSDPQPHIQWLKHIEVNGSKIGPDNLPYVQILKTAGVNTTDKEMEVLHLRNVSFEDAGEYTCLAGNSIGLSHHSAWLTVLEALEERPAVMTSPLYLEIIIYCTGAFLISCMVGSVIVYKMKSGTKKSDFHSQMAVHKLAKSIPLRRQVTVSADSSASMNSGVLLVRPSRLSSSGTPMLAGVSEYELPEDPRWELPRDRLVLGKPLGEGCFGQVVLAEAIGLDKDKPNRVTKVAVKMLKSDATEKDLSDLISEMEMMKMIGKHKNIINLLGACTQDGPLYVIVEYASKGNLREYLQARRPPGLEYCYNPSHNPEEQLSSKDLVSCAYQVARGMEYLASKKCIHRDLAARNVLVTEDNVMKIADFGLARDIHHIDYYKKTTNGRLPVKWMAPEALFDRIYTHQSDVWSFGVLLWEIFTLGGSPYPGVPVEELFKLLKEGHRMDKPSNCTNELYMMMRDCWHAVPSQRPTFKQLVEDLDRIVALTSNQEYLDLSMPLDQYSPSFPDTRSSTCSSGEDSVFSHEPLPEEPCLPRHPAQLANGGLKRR
T1 sequence (P22607 23-806): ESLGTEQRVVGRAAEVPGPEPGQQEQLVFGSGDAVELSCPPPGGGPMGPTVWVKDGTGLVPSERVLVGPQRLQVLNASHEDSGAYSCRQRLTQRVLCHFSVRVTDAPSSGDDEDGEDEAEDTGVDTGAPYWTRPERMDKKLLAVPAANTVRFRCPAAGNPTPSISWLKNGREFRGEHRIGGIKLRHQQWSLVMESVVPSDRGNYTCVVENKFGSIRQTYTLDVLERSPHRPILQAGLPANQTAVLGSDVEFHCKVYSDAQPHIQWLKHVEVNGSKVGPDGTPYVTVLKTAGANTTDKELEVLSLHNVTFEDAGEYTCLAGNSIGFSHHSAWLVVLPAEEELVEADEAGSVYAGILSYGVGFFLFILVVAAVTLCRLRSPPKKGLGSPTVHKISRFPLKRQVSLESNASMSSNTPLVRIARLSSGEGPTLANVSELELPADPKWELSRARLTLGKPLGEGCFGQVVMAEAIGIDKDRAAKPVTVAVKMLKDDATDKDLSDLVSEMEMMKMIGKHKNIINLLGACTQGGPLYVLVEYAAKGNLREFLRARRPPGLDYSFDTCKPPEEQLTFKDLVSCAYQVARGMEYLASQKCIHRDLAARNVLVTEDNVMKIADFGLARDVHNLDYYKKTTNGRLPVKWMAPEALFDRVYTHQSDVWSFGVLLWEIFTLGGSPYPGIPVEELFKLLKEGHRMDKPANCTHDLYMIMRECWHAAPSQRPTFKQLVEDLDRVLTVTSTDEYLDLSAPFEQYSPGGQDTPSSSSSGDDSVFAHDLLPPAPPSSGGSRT
T6 sequence (P11362 478-767 limits assumed): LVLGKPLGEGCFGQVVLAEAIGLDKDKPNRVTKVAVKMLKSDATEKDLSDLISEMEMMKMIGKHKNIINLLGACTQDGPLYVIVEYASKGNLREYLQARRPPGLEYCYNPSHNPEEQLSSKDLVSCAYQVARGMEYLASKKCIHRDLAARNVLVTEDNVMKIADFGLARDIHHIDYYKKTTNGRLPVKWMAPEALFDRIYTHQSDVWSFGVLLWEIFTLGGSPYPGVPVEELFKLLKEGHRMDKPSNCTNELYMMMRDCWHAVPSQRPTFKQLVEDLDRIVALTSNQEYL
T5 sequence (P22455 467-755 limits assumed): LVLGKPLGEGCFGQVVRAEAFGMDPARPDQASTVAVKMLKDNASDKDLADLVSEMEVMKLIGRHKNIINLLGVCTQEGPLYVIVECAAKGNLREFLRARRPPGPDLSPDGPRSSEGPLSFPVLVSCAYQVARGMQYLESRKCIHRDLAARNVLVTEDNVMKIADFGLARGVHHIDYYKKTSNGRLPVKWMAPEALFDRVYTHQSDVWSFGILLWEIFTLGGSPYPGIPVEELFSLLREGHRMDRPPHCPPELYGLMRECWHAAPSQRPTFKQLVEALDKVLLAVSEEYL

The term Kd denotes the free concentration of one partner at which half of the binding sites on the other are occupied at equilibrium, for simple one-to-one binding. As usually defined, the IC50 is the point on the concentration scale where inhibition reaches its midpoint. On to `C[C@@H](Oc1ccc2[nH]nc(-c3cnc4c(c3)NCCO4)c2c1)c1c(Cl)cncc1Cl` [Example 17, 7-[5-[(1R)-1-(3,5-dichloro-4-pyridyl)ethoxy]-1H-indazol-3-yl]-2,3-dihydro-1H-pyrido[2,3-b][1,4]oxazine], for which the Kd in assay [1], in assay [2], in assay [3] and in assay [4] was 0.1 to 100 nM each time. Besides, the IC50 in assay [5] fell in the range of 250 to 1000 nM.

Turning to `C[C@@H](Oc1ccc2[nH]nc(-c3cnc4c(c3)N(C(=O)c3ccccn3)CCO4)c2c1)c1c(Cl)cncc1Cl` [Example 20, [7-[5-[(1R)-1-(3,5-dichloro-4-pyridyl)ethoxy]-1H-indazol-3-yl]-2,3-dihydropyrido[2,3-b][1,4]oxazin-1-yl]-(2-pyridyl)methanone], the Kd in assay [1] lay within 0.1 to 100 nM; in assay [2] it was 0.1 to 100 nM; in assay [3], 100 to 250 nM; in assay [4] it was 100 to 250 nM. In addition, in assay [5], the IC50 lay within 250 to 1000 nM.

`Cc1ncc(Cl)c([C@@H](C)Oc2ccc3[nH]nc(-c4ccc5c(c4)COC4(CCN(S(C)(=O)=O)CC4)O5)c3c2)c1Cl` [Example 163, (R)-6-(5-(1-(3,5-Dichloro-2-methylpyridin-4-yl)ethoxy)-1H-indazol-3-yl)-1′-(methylsulfonyl)-4H-spiro[benzo[d][1,3]dioxine-2,4′-piperidine]]: the Kd is 0.1 to 100 nM in assay [1], 100 to 250 nM in assay [2], 100 to 250 nM in assay [3] and 0.1 to 100 nM in assay [4]. For the same compound, the IC50 lay within 250 to 1000 nM in assay [6] and 0.1 to 100 nM in assay [7].

Turning to `Cc1cc(-c2n[nH]c3ccc(O[C@H](C)c4c(Cl)cnc(C)c4Cl)cc23)cnc1N[C@@H]1CCOC1` [Example 164, 5-[5-[(1R)-1-(3,5-dichloro-2-methyl-4-pyridyl)ethoxy]-1H-indazol-3-yl]-3-methyl-N-[(3R)-tetrahydrofuran-3-yl]pyridin-2-amine], the Kd in assay [1] fell in the range of 0.1 to 100 nM; in assay [2], 0.1 to 100 nM; in assay [3], 250 to 1000 nM; in assay [4] it was 0.1 to 100 nM. The IC50 in assay [6] was more than 1000 nM; in assay [7], 0.1 to 100 nM.

For the compound `C[C@@H](Oc1ccc2[nH]nc(-c3ccc4c(c3)COC3(CCN(S(C)(=O)=O)CC3)O4)c2c1)c1c(Cl)cncc1Cl` [Example 165, 6-[5-[(1R)-1-(3,5-dichloro-4-pyridyl)ethoxy]-1H-indazol-3-yl]-1′-methylsulfonyl-spiro[4H-1,3-benzodioxine-2,4′-piperidine]], the Kd in assay [1], in assay [2], in assay [3] and in assay [4] was 0.1 to 100 nM in each case. The IC50 in assay [6] fell in the range of 250 to 1000 nM; in assay [7], 0.1 to 100 nM.

Take `Cc1ncc(Cl)c([C@@H](C)Oc2ccc3[nH]nc(-c4ccc5c(c4)COC4(CCN(CC(F)F)CC4)O5)c3c2)c1Cl` [Example 166, (R)-6-(5-(1-(3,5-Dichloro-2-methylpyridin-4-yl)ethoxy)-1H-indazol-3-yl)-1′-(2,2-difluoroethyl)-4H-spiro[benzo[d][1,3]dioxine-2,4′-piperidine]]: the Kd in assay [1] lay in the range of 0.1 to 100 nM; in assay [2] it was 0.1 to 100 nM; in assay [3], 100 to 250 nM; in assay [4] it was 100 to 250 nM. The IC50 in assay [6] is more than 1000 nM; in assay [7], 100 to 250 nM.

As for `C[C@@H](Oc1ccc2[nH]nc(-c3ccc4c(c3)COC3(CCN(CC(F)(F)F)CC3)O4)c2c1)c1c(Cl)cncc1Cl` [Example 169, 6-[5-[(1R)-1-(3,5-dichloro-4-pyridyl)ethoxy]-1H-indazol-3-yl]-1′-(2,2,2-trifluoroethyl)spiro[4H-1,3-benzodioxine-2,4′-piperidine]], the equilibrium dissociation constant (Kd) in assay [1] was 0.1 to 100 nM; in assay [2] it was 0.1 to 100 nM; in assay [3] it was 100 to 250 nM; in assay [4] it was 100 to 250 nM. For the same compound, the IC50 was more than 1000 nM in assay [6] and 0.1 to 100 nM in assay [7].

For the origin of these results see patent US20240316022A1 (TYRA BIOSCIENCES, INC., priority 2021, published 2024).
